Changes are numbered by the printed parent chain. Read-outs that look alike come from different tables or passages of the source.
Columns and labels:
hAR = target: T1, hAR (Homo sapiens, UniProt P10275); test: Competitive binding analysis on baculovirus/Sf9 generated hAR extracts with 3H-DHT tracer; conditions: 1 nM 3H-DHT, one hour at 4° C., mean of multiple tests
T1 construct: made in house; host or cells: baculovirus/Sf9 insect cells
T1 sequence (P10275 1-920): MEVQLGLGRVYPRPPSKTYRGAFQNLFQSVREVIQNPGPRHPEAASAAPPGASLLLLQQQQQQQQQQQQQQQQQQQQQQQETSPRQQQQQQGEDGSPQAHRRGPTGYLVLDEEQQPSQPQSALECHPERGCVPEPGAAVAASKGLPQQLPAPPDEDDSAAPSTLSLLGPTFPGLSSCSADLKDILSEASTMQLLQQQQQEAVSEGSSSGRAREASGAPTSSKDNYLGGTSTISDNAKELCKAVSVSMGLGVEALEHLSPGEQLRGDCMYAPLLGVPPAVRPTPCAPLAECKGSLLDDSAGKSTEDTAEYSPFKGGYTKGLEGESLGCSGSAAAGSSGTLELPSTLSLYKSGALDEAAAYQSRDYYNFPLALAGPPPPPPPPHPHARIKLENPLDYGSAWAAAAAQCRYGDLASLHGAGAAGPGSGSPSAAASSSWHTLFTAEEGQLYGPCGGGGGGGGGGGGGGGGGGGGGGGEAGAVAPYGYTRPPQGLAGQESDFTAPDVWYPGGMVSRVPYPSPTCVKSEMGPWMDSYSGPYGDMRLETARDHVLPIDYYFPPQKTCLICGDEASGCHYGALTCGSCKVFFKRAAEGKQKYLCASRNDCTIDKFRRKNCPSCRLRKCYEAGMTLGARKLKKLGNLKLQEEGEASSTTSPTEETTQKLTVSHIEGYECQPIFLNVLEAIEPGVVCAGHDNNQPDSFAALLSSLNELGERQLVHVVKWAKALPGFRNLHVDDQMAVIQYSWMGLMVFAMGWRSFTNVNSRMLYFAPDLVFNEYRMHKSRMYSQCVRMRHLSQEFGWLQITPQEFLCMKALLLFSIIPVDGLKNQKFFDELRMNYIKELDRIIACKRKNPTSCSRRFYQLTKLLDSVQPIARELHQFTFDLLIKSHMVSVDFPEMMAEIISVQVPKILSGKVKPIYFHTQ
Procedure: The description below describes how the assay was carried out.
Competitive binding analysis was performed on baculovirus/Sf9 generated hAR extracts in the presence or absence of different concentrations of test agent and a fixed concentration of ^3H-dihydrotestosterone (^3H-DHT) as tracer. This binding assay method is a modification of a protocol previously described (Liao S., et. al. J. Steroid Biochem. 20:11-17 1984). Briefly, progressively decreasing concentrations of compounds are incubated in the presence of hAR extract (Chang et al. P.N.A.S. Vol. 89, pp. […], 1992), hydroxylapatite, and 1 nM ^3H-DHT for one hour at 4° C. Subsequently, the binding reactions are washed three times to completely remove excess unbound ^3H-DHT. hAR bound ^3H-DHT levels are determined in the presence of compounds (i.e. competitive binding) and compared to levels bound when no competitor is present (i.e. maximum binding). Compound binding affinity to the hAR is expressed as the concentration of compound at which one half of the maximum binding is inhibited.

androgen receptor = target: T2, androgen receptor (Homo sapiens, UniProt P10275, Q868H); test: AR antagonist cell assay (MDA-MB453-MMTV clone 54-19, luciferase reporter); format: cell-based; conditions: 100 pM DHT, 17 hr, mean of multiple tests
T2 construct: a human breast tumor cell line expressing androgen receptor; endogenous in cells; host or cells: MDA-MB453-MMTV clone 54-19 (only the MMTV-luciferase reporter was transfected)
T2 sequence (P10275 1-920 Q868H): T1 sequence (P10275 1-920) with Q868H
Procedure: The compounds ability to antagonize the effects of androgen on the androgen receptor were determined in a whole cell assay as described immediately below.
Experimental Procedure for AR Antagonist Cell Assay
This cell line is a stable transfected cell line with MDA-MB453 cell background (a human breast tumor cell line expressing androgen receptor). A MMTV minimal promoter containing ARE was first cloned in front of a firefly luciferase reporter gene. Then the cascade was cloned into transfection vector pUV120puro. Electroporation method was used for transfecting MDA-MB-453 cell. Puromycin resistant stable cell line was selected.
Cell Culture Media and Reagents:
Culture medium: DMEM (high glucose, Gibco cat #: 11960-044), 10% FBS, and 1% L-glutamine
Plating medium: DMEM (phenol red free), 10% charcoal treated HyClone serum, 1% L-glutamine
Assay medium: DMEM (phenol red free), 1% charcoal treated HyClone serum, 1% L-glutamine, and 1% penicillin/streptomycin
3× luciferase buffer: 2% beta-mercaptoethanol, 0.6% ATP, 0.0135% luciferine in cell lysis buffer
• 1. Cells are maintained in culture medium, splitting cells when they reach 80-90% confluence • 2. To test compounds, 10,000 cells/well are plated to opaque 96 cell culture plate in 100 ul/well plating medium, culture for overnight at 37° C. in cell culture incubator • 3. Carefully remove plating medium, then add 80 ul/well of pre-warmed assay medium, add 10 ul/well testing compound (final concentration at) 1000 nM, 200 nM, 40 nM, 8 nM, 1.6 nM, and 0.32 nM), incubate at 37° C. for 30 minutes • 4. Add 10 ul/well freshly prepared DHT (final concentration at 100 pM) to each well, incubate at 37° C. for 17 hr (overnight) • 5.
The results are reported as the mean of multiple tests as described below (the numbers of tests are indicated in the footnote). N.D. denotes that the compound was not tested.

[1] = MDA-MB453-MMTV clone 54-19 cells, read-out: AR Cell IC50
[2] = hAR extract, read-out: AR Binding IC50
[3] = AR Cell IC50, MDA-MB453-MMTV clone 54-19 cells

Row | SMILES | IC50 (hAR; AR Binding IC50, hAR extract) [nM] | IC50 (androgen receptor; [1]) [nM] | IC50 (hAR; [2]) [nM] | IC50 (androgen receptor; [3]) [nM]
1 | CO[C@H]1CCC[C@H]1Oc1ccc(C#N)c(Cl)c1 (relative stereo) [Example 34, 2-Chloro-4-(cis-2-methoxy-cyclopentyloxy)-benzonitrile] | 172 | 340 | – | –
2 | CO[C@H]1CCCC[C@H]1Oc1ccc(C#N)c(Cl)c1 (relative stereo) [Example 36, 2-Chloro-4-(cis-2-methoxy-cyclohexyloxy)-benzonitrile] | 123 | 300 | – | –
3 | CO[C@H]1CCCC[C@@H]1Oc1ccc(C#N)c(C(F)(F)F)c1 (relative stereo) [Example 70] | – | – | 158 | 10
4 | CC1CCCC(Oc2ccc(C#N)cc2Cl)C1C (single isomer, unassigned) [Example 64, 3-Chloro-4-(2,3-dimethyl-cyclohexyloxy)-benzonitrile] | – | 217 | 119 | –
5 | N#Cc1ccc(O[C@@H]2CCCC[C@H]2C#N)cc1C(F)(F)F (single isomer, unassigned) [Example 73, (trans)-(+)-4-(2-Cyano-cyclohexyloxy)-2-trifluoromethyl-benzonitrile] | 61 | 196 | – | –
6 | CC1(O)C[C@@H]2C[C@H]1CC2Oc1ccc(C#N)c(C(F)(F)F)c1 (stereo in doubt) [Example 1, 4-(5-Hydroxy-5-methyl-bicyclo[2.2.1]hept-2-yloxy)-2-trifluoromethyl-benzonitrile] | – | – | 655 | 80
7 | N#Cc1ccc(O[C@H]2CC3CC[C@@H]2C3)cc1Cl (stereo in doubt) [Example 24, 4-(R)-(Bicyclo[2.2.1]hept-2-yloxy)-2-chloro-benzonitrile] | 106 | – | – | 15
8 | N#Cc1ccc(O[C@@H]2CC3CC[C@@H]2C3)cc1Cl (stereo in doubt) [Example 25, 4-(S)-(Bicyclo[2.2.1]hept-2-yloxy)-2-chloro-benzonitrile] | 82 | < 0.32 | – | –
9 | N#Cc1ccc(O[C@H]2CCCCC2c2ccccc2)cc1Cl (stereo in doubt) [Example 33, 2-Chloro-4-(2-(S)-phenyl-(S)-cyclohexyloxy)-benzonitrile] | 60 | 485 | – | –
10 | N#Cc1ccc(O[C@H]2CCCC[C@@H]2c2ccccc2)cc1C(F)(F)F [Example 3, 4-(2-(R)-Phenyl-1-(S)-cyclohexyloxy)-2-trifluoromethyl-benzonitrile] | 73 | > 1000 | – | –
11 | C=CCC1(Oc2ccc(C#N)c(C(F)(F)F)c2)CCCCC1 [Example 4, 4-(1-Allyl-cyclohexyloxy)-2-trifluoromethyl-benzonitrile] | 48 | > 1000 | – | –
12 | CCC1CCCCC1Oc1ccc(C#N)c(C(F)(F)F)c1 (stereo not shown) [Example 7, 4-(2-Ethyl-cyclohexyloxy)-2-trifluoromethyl-benzonitrile] | – | 329 | 125 | –
13 | C[C@@H]1CCCC[C@@H]1Oc1ccc(C#N)c(C(F)(F)F)c1 [Example 9, (1S,2R)-4-(2-Methyl-cyclohexyloxy)-2-trifluoromethyl-benzonitrile] | 22 | 751 | – | –
14 | N#Cc1ccc(OC2CCCC2)cc1C(F)(F)F [Example 10] | – | 605 | 156 | –
15 | N#Cc1ccc(OC2CCCCC2)cc1C(F)(F)F [Example 11, 4-Cyclohexyloxy-2-trifluoromethyl-benzonitrile] | – | – | 390 | 0.5
16 | CC1CCCC(C)C1Oc1ccc(C#N)c(C(F)(F)F)c1 (stereo not shown) [Example 12, 4-(2,6-Dimethyl-cyclohexyloxy)-2-trifluoromethyl-benzonitrile] | 73 | > 1000 | – | –
17 | CCCCC1(Oc2ccc(C#N)c(Cl)c2)CCCC1 [Example 21, 4-(1-Butyl-cyclopentyloxy)-2-chloro-benzonitrile] | – | > 1000 | 206 | –
18 | CCC1CCCCC1Oc1ccc(C#N)c(Cl)c1 (stereo not shown) [Example 22, 2-Chloro-4-(2-ethyl-cyclohexyloxy)-benzonitrile] | 71 | > 1000 | – | –
19 | CC1CCC(Oc2ccc(C#N)c(Cl)c2)C1 (stereo not shown) [Example 23, 2-Chloro-4-(3-methyl-cyclopentyloxy)-benzonitrile] | – | 202 | 145 | –
20 | N#Cc1ccc(OC2CCCC(O)C2)cc1Cl (stereo not shown) [Example 26, 2-Chloro-4-(3-hydroxy-cyclohexyloxy)-benzonitrile] | – | – | 404 | 46
21 | CCC1CCCCC1Oc1ccc(C#N)c(Cl)c1 (stereo not shown) [Example 27, 2-Chloro-4-(2-ethyl-cyclohexyloxy)-benzonitrile] | 30 | 330 | – | –
22 | C[C@H]1CC[C@@H](Oc2ccc(C#N)c(Cl)c2)CC1 [Example 31, 2-Chloro-4-(4-cis-methyl-cyclohexyloxy)-benzonitrile] | – | – | 212 | 66
23 | C[C@@H]1CCCC[C@@H]1Oc1ccc(C#N)c(Cl)c1 [Example 40, (1S,2R)-2-Chloro-4-(2-methyl-cyclohexyloxy)-benzonitrile] | 31 | 114 | – | –

— patent US7670613B2, “Androgen modulators” (Pfizer Inc., priority 2004, dated 2010)
